Reference: PMC10359453, “Mutational and structural analyses of UdgX: insights into the active site pocket architecture and its evolution” (Nucleic Acids Research, 2023)

Experiments:
Assay in all cases: X-ray crystal structure of complex
Assay type in all cases: binding
MsmUdgX [1] = molecular target: T1, MsmUdgX (Mycolicibacterium smegmatis, UniProt A0QP43, H109S/R184A); conditions: uracil excised from 5-mer ssDNA TTUTT, DNA backbone not modelled; active site; pH 7.0
T1 construct: gene MSMEG_0265; N-terminal 6xHis tag (pET14b), expressed in E. coli Rosetta (DE3), Ni-NTA and Superdex-75 purified; 4Fe-4S protein

MsmUdgX [2] = molecular target: T2, MsmUdgX (Mycolicibacterium smegmatis, UniProt A0QP43); conditions: uracil excised from 5-mer ssDNA TTUTT; active site; pH 7.0
T2 construct: gene MSMEG_0265; N-terminal 6xHis tag (pET14b), expressed in E. coli Rosetta (DE3), Ni-NTA and Superdex-75 purified; 4Fe-4S protein
T2 sequence (A0QP43 1-209): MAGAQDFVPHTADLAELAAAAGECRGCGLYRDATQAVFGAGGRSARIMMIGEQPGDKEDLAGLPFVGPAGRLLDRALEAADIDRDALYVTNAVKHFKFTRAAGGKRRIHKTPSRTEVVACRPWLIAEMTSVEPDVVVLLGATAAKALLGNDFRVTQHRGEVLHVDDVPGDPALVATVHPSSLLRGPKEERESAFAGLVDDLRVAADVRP

MsmUdgX [3] = molecular target: T3, MsmUdgX (Mycolicibacterium smegmatis, UniProt A0QP43, H109Q); conditions: uracil excised from 5-mer ssDNA TTUTT, DNA backbone not modelled; active site; pH 7.0
T3 construct: gene MSMEG_0265; N-terminal 6xHis tag (pET14b), expressed in E. coli Rosetta (DE3), Ni-NTA and Superdex-75 purified; 4Fe-4S protein

MsmUdgX [4] = molecular target: T4, MsmUdgX (Mycolicibacterium smegmatis, UniProt A0QP43, H109G); conditions: uracil excised from 5-mer ssDNA TTUTT, DNA backbone not modelled; active site; pH 7.0
T4 construct: gene MSMEG_0265; N-terminal 6xHis tag (pET14b), expressed in E. coli Rosetta (DE3), Ni-NTA and Superdex-75 purified; 4Fe-4S protein

MsmUdgX [5] = molecular target: T5, MsmUdgX (Mycolicibacterium smegmatis, UniProt A0QP43, H109A); conditions: uracil excised from 5-mer ssDNA TTUTT, DNA backbone not modelled; active site; pH 7.0
T5 construct: gene MSMEG_0265; N-terminal 6xHis tag (pET14b), expressed in E. coli Rosetta (DE3), Ni-NTA and Superdex-75 purified; 4Fe-4S protein

MsmUdgX [6] = molecular target: T6, MsmUdgX (Mycolicibacterium smegmatis, UniProt A0QP43, H109C); conditions: uracil excised from 5-mer ssDNA TTUTT, DNA backbone not modelled; active site; pH 7.0
T6 construct: gene MSMEG_0265; N-terminal 6xHis tag (pET14b), expressed in E. coli Rosetta (DE3), Ni-NTA and Superdex-75 purified; 4Fe-4S protein

MsmUdgX [7] = molecular target: T7, MsmUdgX (Mycolicibacterium smegmatis, UniProt A0QP43, H109K); conditions: uracil excised from 5-mer ssDNA TTUTT, DNA backbone not modelled; active site; pH 7.0
T7 construct: gene MSMEG_0265; N-terminal 6xHis tag (pET14b), expressed in E. coli Rosetta (DE3), Ni-NTA and Superdex-75 purified; 4Fe-4S protein
T7 sequence (A0QP43 entry or part of it H109K): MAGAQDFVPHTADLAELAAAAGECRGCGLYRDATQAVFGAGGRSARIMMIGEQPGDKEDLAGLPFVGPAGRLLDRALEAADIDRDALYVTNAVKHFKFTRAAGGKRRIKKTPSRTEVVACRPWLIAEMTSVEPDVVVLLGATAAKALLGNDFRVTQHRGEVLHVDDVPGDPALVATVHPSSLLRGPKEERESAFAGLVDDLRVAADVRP

T4 sequence (A0QP43 entry or part of it H109G): as the sequence (A0QP43 entry or part of it H109K) above, with K109G counted along it
T6 sequence (A0QP43 entry or part of it H109C): as the sequence (A0QP43 entry or part of it H109K) above, with K109C counted along it
T5 sequence (A0QP43 entry or part of it H109A): as the sequence (A0QP43 entry or part of it H109K) above, with K109A counted along it
T1 sequence (A0QP43 entry or part of it H109S/R184A): as the sequence (A0QP43 entry or part of it H109K) above, with K109S, R184A counted along it
T3 sequence (A0QP43 entry or part of it H109Q): as the sequence (A0QP43 entry or part of it H109K) above, with K109Q counted along it

Compound: O=c1cc[nH]c(=O)[nH]1 [uracil]
- X-ray crystal structure of complex (MsmUdgX [1]): H109S/R184A (orange, PDB ID: 8IIT)
- X-ray crystal structure of complex (MsmUdgX [2]): Uracil bound in the active site of MsmUdgX, post its cleavage from the DNA backbone
- X-ray crystal structure of complex (MsmUdgX [3]): H109Q (green, PDB ID: 8IIP)
- X-ray crystal structure of complex (MsmUdgX [4]): H109G (cyan, PDB ID: 8IIL)
- X-ray crystal structure of complex (MsmUdgX [5]): H109A (brown, PDB ID: 8IIG), mutants with uracil in the active sites cavity
- X-ray crystal structure of complex (MsmUdgX [6]): H109C (magenta, PDB ID: 8III)
- X-ray crystal structure of complex (MsmUdgX [7]): Crystal structures of H109K (yellow, (PDB ID: 8IIN)
